Test results published in ChEMBL document CHEMBL5113475, “10-Alkoxy-anthracenyl-isoxazole analogs have sub-micromolar activity against a Glioblastoma multiforme cell line” (Bioorg Med Chem, 2022).
Values belong to the compound of their own block, whether it stands above or below them. The source made the active and inactive calls. No cut-off for these calls is given here.

Legend:
SNB-19 = experiment: Antitumor activity against human SNB-19 cells assessed as cell growth inhibition measured after 24 hrs by MTT colorimetric assay; assay type: functional, cell-based; conditions: SNB-19, 24 h
Quadruplex DNA = experiment: Stabilization of c-Myc G-quadruplex DNA (unknown origin ) assessed as increase in melting temperature at 2 equivalent by CD spectroscopy; assay type: nucleic-acid assay; conditions: dose 2.0 equiv

Compound: COc1c2ccccc2c(-c2noc(C)c2C(=O)Nc2cc(C(=O)N(CCCN(C)C)CCCN(C)C)n(C)c2)c2ccccc12
IC50 (SNB-19): 7.77 µM

Activity (Quadruplex DNA): Active
Compound: Cc1onc(-c2c3ccccc3c(Oc3ccc(-c4ccccc4)cc3)c3ccccc23)c1C(=O)Nc1cc(C(=O)N(CCCN(C)C)CCCN(C)C)n(C)c1
IC50 (SNB-19): 0.58 µM

Compound: COc1ccc2c(OC)c3ccccc3c(-c3noc(C)c3C(=O)Nc3cc(C(=O)N(CCCN(C)C)CCCN(C)C)n(C)c3)c2c1
IC50 (SNB-19): 4.8 µM

Compound: Cc1onc(-c2c3ccccc3c(Oc3ccccc3)c3ccccc23)c1C(=O)Nc1cc(C(=O)N(CCCN(C)C)CCCN(C)C)n(C)c1
IC50 (SNB-19): 1.03 µM

Compound: Cc1onc(-c2c3ccccc3c(Oc3ccc4ccccc4c3)c3ccccc23)c1C(=O)Nc1cc(C(=O)N(CCCN(C)C)CCCN(C)C)n(C)c1
IC50 (SNB-19): 3.1 µM

Compound: Cc1onc(-c2c3ccccc3c(Oc3cccc4ccccc34)c3ccccc23)c1C(=O)Nc1cc(C(=O)N(CCCN(C)C)CCCN(C)C)n(C)c1
IC50 (SNB-19): 1.07 µM

Compound: COc1ccc2c(OC)c3ccccc3c(-c3noc(C)c3C(=O)Nc3cc(C(=O)N(CCCN(C)C)CCCN(C)C)n(C)c3)c2c1Cl
IC50 (SNB-19): 12.6 µM
